{"source": "PubChem BioAssay (NCI)", "test_in_all_cases": "NCI anticancer screen, dose series, 384-well format", "key": {"[1]": {"test_system": "SR leukemia"}, "[2]": {"test_system": "CAKI-1 renal"}, "[3]": {"test_system": "HCT-15 colon"}, "[4]": {"test_system": "EKVX NSCLC"}, "[5]": {"test_system": "SF-539 CNS"}, "[6]": {"test_system": "NCI-H322M lung"}, "[7]": {"test_system": "MDA-MB-435 melanoma"}, "[8]": {"test_system": "COLO 205 colon"}, "[9]": {"test_system": "OVCAR-3 ovarian"}, "[10]": {"test_system": "SK-MEL-5 melanoma"}, "[11]": {"test_system": "UO-31 renal"}, "[12]": {"test_system": "SNB-19 CNS"}, "[13]": {"test_system": "MOLT-4 leukemia"}, "[14]": {"test_system": "SW-620 colon"}, "[15]": {"test_system": "TK-10 renal"}, "[16]": {"test_system": "NCI-H522 lung"}, "[17]": {"test_system": "NCI-H460 NSCLC"}, "[18]": {"test_system": "NCI-H23 lung"}, "[19]": {"test_system": "HL-60(TB) leukemia"}, "[20]": {"test_system": "A549 NSCLC"}, "[21]": {"test_system": "KM12 colon"}, "[22]": {"test_system": "K-562 leukemia"}, "[23]": {"test_system": "SF-295 CNS"}, "[24]": {"test_system": "HCT-116 colon"}, "[25]": {"test_system": "RXF 393 renal"}, "[26]": {"test_system": "HOP-62 NSCLC"}, "[27]": {"test_system": "MALME-3M melanoma"}, "[28]": {"test_system": "MCF7 breast"}, "[29]": {"test_system": "HS 578T breast"}, "[30]": {"test_system": "SF-268 CNS"}, "[31]": {"test_system": "U251 glioblastoma"}, "[32]": {"test_system": "T-47D breast"}, "[33]": {"test_system": "SK-MEL-2 melanoma"}, "[34]": {"test_system": "MDA-MB-468 breast"}, "[35]": {"test_system": "NCI-H226 lung"}, "[36]": {"test_system": "HOP-92 NSCLC"}, "[37]": {"test_system": "OVCAR-8 ovarian"}, "[38]": {"test_system": "SN12C renal"}, "[39]": {"test_system": "IGROV1 ovarian"}, "[40]": {"test_system": "DU-145 prostate"}, "[41]": {"test_system": "SK-OV-3 ovarian"}, "[42]": {"test_system": "786-0 renal"}, "[43]": {"test_system": "MDA-MB-231 breast"}, "[44]": {"test_system": "M14 melanoma"}, "[45]": {"test_system": "OVCAR-4 ovarian"}, "[46]": {"test_system": "HT29 colon"}, "[47]": {"test_system": "UACC-62 melanoma"}, "[48]": {"test_system": "PC-3 prostate"}, "[49]": {"test_system": "SNB-75 CNS"}, "[50]": {"test_system": "SK-MEL-28 melanoma"}, "[51]": {"test_system": "UACC-257 melanoma"}, "[52]": {"test_system": "BT-549 breast"}, "[53]": {"test_system": "OVCAR-5 ovarian"}}, "note": "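GI50 marks 50% less growth. TGI: concentration producing complete growth inhibition.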", "data": [{"smiles": "C=CCn1c(=O)c2cnc(Nc3ccc(N4CCN(C)CC4)cc3)nc2n1-c1ccc2c(n1)[C@@](O)(CC)CC2", "values": [{"measurement": "GI50", "setting": "[1]", "result": 103, "unit": "nM"}, {"measurement": "TGI", "setting": "[1]", "result": 224, "unit": "nM"}, {"measurement": "GI50", "setting": "[2]", "result": 64.4, "unit": "nM"}, {"measurement": "TGI", "setting": "[2]", "result": 12700, "unit": "nM"}, {"measurement": "GI50", "setting": "[3]", "result": 440, "unit": "nM"}, {"measurement": "TGI", "setting": "[3]", "result": 1800, "unit": "nM"}, {"measurement": "GI50", "setting": "[4]", "result": 324, "unit": "nM"}, {"measurement": "TGI", "setting": "[4]", "result": 2510, "unit": "nM"}, {"measurement": "GI50", "setting": "[5]", "result": 49.5, "unit": "nM"}, {"measurement": "TGI", "setting": "[5]", "result": 194, "unit": "nM"}, {"measurement": "GI50", "setting": "[6]", "result": 206, "unit": "nM"}, {"measurement": "TGI", "setting": "[6]", "result": 2030, "unit": "nM"}, {"measurement": "GI50", "setting": "[7]", "result": 160, "unit": "nM"}, {"measurement": "TGI", "setting": "[7]", "result": 374, "unit": "nM"}, {"measurement": "GI50", "setting": "[8]", "result": 349, "unit": "nM"}, {"measurement": "TGI", "setting": "[8]", "result": 2020, "unit": "nM"}, {"measurement": "GI50", "setting": "[9]", "result": 126, "unit": "nM"}, {"measurement": "TGI", "setting": "[9]", "result": 371, "unit": "nM"}, {"measurement": "GI50", "setting": "[10]", "result": 172, "unit": "nM"}, {"measurement": "TGI", "setting": "[10]", "result": 453, "unit": "nM"}, {"measurement": "GI50", "setting": "[11]", "result": 307, "unit": "nM"}, {"measurement": "TGI", "setting": "[11]", "result": 1440, "unit": "nM"}, {"measurement": "GI50", "setting": "[12]", "result": 1350, "unit": "nM"}, {"measurement": "TGI", "setting": "[12]", "result": "> 100000", "unit": "nM"}, {"measurement": "GI50", "setting": "[13]", "result": 30.5, "unit": "nM"}, {"measurement": "TGI", "setting": "[13]", "result": 121, "unit": "nM"}, {"measurement": "GI50", "setting": "[14]", "result": 280, "unit": "nM"}, {"measurement": "TGI", "setting": "[14]", "result": 1950, "unit": "nM"}, {"measurement": "GI50", "setting": "[15]", "result": 160, "unit": "nM"}, {"measurement": "TGI", "setting": "[15]", "result": 1560, "unit": "nM"}, {"measurement": "GI50", "setting": "[16]", "result": 130, "unit": "nM"}, {"measurement": "TGI", "setting": "[16]", "result": 286, "unit": "nM"}, {"measurement": "GI50", "setting": "[17]", "result": 139, "unit": "nM"}, {"measurement": "TGI", "setting": "[17]", "result": 806, "unit": "nM"}, {"measurement": "GI50", "setting": "[18]", "result": 78.5, "unit": "nM"}, {"measurement": "TGI", "setting": "[18]", "result": 257, "unit": "nM"}, {"measurement": "GI50", "setting": "[19]", "result": 110, "unit": "nM"}, {"measurement": "TGI", "setting": "[19]", "result": 233, "unit": "nM"}, {"measurement": "GI50", "setting": "[20]", "result": 1830, "unit": "nM"}, {"measurement": "TGI", "setting": "[20]", "result": 12300, "unit": "nM"}, {"measurement": "GI50", "setting": "[21]", "result": 1130, "unit": "nM"}, {"measurement": "TGI", "setting": "[21]", "result": 7260, "unit": "nM"}, {"measurement": "GI50", "setting": "[22]", "result": 165, "unit": "nM"}, {"measurement": "TGI", "setting": "[22]", "result": 354, "unit": "nM"}, {"measurement": "GI50", "setting": "[23]", "result": 348, "unit": "nM"}, {"measurement": "TGI", "setting": "[23]", "result": 3540, "unit": "nM"}, {"measurement": "GI50", "setting": "[24]", "result": 268, "unit": "nM"}, {"measurement": "TGI", "setting": "[24]", "result": 8680, "unit": "nM"}, {"measurement": "GI50", "setting": "[25]", "result": 26, "unit": "nM"}, {"measurement": "TGI", "setting": "[25]", "result": 106, "unit": "nM"}, {"measurement": "GI50", "setting": "[26]", "result": 401, "unit": "nM"}, {"measurement": "TGI", "setting": "[26]", "result": 2150, "unit": "nM"}, {"measurement": "GI50", "setting": "[27]", "result": 101, "unit": "nM"}, {"measurement": "TGI", "setting": "[27]", "result": 484, "unit": "nM"}, {"measurement": "GI50", "setting": "[28]", "result": 218, "unit": "nM"}, {"measurement": "TGI", "setting": "[28]", "result": 2190, "unit": "nM"}, {"measurement": "GI50", "setting": "[29]", "result": 83, "unit": "nM"}, {"measurement": "TGI", "setting": "[29]", "result": 445, "unit": "nM"}, {"measurement": "GI50", "setting": "[30]", "result": 689, "unit": "nM"}, {"measurement": "TGI", "setting": "[30]", "result": 13800, "unit": "nM"}, {"measurement": "GI50", "setting": "[31]", "result": 497, "unit": "nM"}, {"measurement": "TGI", "setting": "[31]", "result": 11400, "unit": "nM"}, {"measurement": "GI50", "setting": "[32]", "result": 5810, "unit": "nM"}, {"measurement": "TGI", "setting": "[32]", "result": 21800, "unit": "nM"}, {"measurement": "GI50", "setting": "[33]", "result": 124, "unit": "nM"}, {"measurement": "TGI", "setting": "[33]", "result": 352, "unit": "nM"}, {"measurement": "GI50", "setting": "[34]", "result": 120, "unit": "nM"}, {"measurement": "TGI", "setting": "[34]", "result": 349, "unit": "nM"}, {"measurement": "GI50", "setting": "[35]", "result": 1020, "unit": "nM"}, {"measurement": "TGI", "setting": "[35]", "result": 5550, "unit": "nM"}, {"measurement": "GI50", "setting": "[36]", "result": 130, "unit": "nM"}, {"measurement": "TGI", "setting": "[36]", "result": 13400, "unit": "nM"}, {"measurement": "GI50", "setting": "[37]", "result": 288, "unit": "nM"}, {"measurement": "TGI", "setting": "[37]", "result": 1050, "unit": "nM"}, {"measurement": "GI50", "setting": "[38]", "result": 328, "unit": "nM"}, {"measurement": "TGI", "setting": "[38]", "result": 3890, "unit": "nM"}, {"measurement": "GI50", "setting": "[39]", "result": 95.3, "unit": "nM"}, {"measurement": "TGI", "setting": "[39]", "result": 1350, "unit": "nM"}, {"measurement": "GI50", "setting": "[40]", "result": 241, "unit": "nM"}, {"measurement": "TGI", "setting": "[40]", "result": 3890, "unit": "nM"}, {"measurement": "GI50", "setting": "[41]", "result": 174, "unit": "nM"}, {"measurement": "TGI", "setting": "[41]", "result": 1570, "unit": "nM"}, {"measurement": "GI50", "setting": "[42]", "result": 243, "unit": "nM"}, {"measurement": "TGI", "setting": "[42]", "result": 964, "unit": "nM"}, {"measurement": "GI50", "setting": "[43]", "result": 395, "unit": "nM"}, {"measurement": "TGI", "setting": "[43]", "result": 10100, "unit": "nM"}, {"measurement": "GI50", "setting": "[44]", "result": 58.4, "unit": "nM"}, {"measurement": "TGI", "setting": "[44]", "result": 863, "unit": "nM"}, {"measurement": "GI50", "setting": "[45]", "result": 196, "unit": "nM"}, {"measurement": "TGI", "setting": "[45]", "result": 1040, "unit": "nM"}, {"measurement": "GI50", "setting": "[46]", "result": 211, "unit": "nM"}, {"measurement": "TGI", "setting": "[46]", "result": 536, "unit": "nM"}, {"measurement": "GI50", "setting": "[47]", "result": 371, "unit": "nM"}, {"measurement": "TGI", "setting": "[47]", "result": 14700, "unit": "nM"}, {"measurement": "GI50", "setting": "[48]", "result": 1040, "unit": "nM"}, {"measurement": "TGI", "setting": "[48]", "result": 20300, "unit": "nM"}, {"measurement": "GI50", "setting": "[49]", "result": 1070, "unit": "nM"}, {"measurement": "TGI", "setting": "[49]", "result": 8160, "unit": "nM"}, {"measurement": "GI50", "setting": "[50]", "result": 2880, "unit": "nM"}, {"measurement": "TGI", "setting": "[50]", "result": 14300, "unit": "nM"}, {"measurement": "GI50", "setting": "[51]", "result": 1950, "unit": "nM"}, {"measurement": "TGI", "setting": "[51]", "result": 11300, "unit": "nM"}, {"measurement": "GI50", "setting": "[52]", "result": 137, "unit": "nM"}, {"measurement": "TGI", "setting": "[52]", "result": 348, "unit": "nM"}, {"measurement": "GI50", "setting": "[53]", "result": 920, "unit": "nM"}, {"measurement": "TGI", "setting": "[53]", "result": 14400, "unit": "nM"}]}]}
